Assay results reported in patent USRE37664E1, “Use of derivatives of N-phenl-3,4,5,6-tetrahydrophthalimide for the desiccation and abscission of plant organs” (BASF Aktiengessellschaft, priority 1989, dated 2002).
Counter-ions that a name gives are not always drawn. Each block holds one compound with its values, some of them ahead of it.

Key:
[1] = system: cotton plants (Delta Pine variety); assay: Defoliation of young cotton plants under greenhouse conditions, Example A; type: in vivo; details: 12 days after application, day/night 23/16° C., as a percentage of the control
Procedure: (§1) Young cotton plants (Delta Pine variety, development stage: 5-6 developed foliage leaves) were cultivated under greenhouse conditions (day/night temperature 23/16° C., relative humidity 50-70%) and the foliage was treated, until dripping wet, with aqueous formulations of the stated active ingredients. The converted amount of water was 1,000 l/ha. 12 days after application of the active ingredient, the number of dropped leaves and the degree of defoliation as a percentage of the control were stated. No dropping of leaves occurred in the untreated control plants.

[2] = system: cotton plants (Delta Pine variety); assay: Defoliation of young cotton plants under greenhouse conditions, Example C; type: in vivo; details: foliar treatment of young cotton plants, 3 days after application, day/night 28/20° C., percentage of the control
Procedure: as §1, with “stage of development:” for “development stage:”, “green house” for “greenhouse”, “28/20°” for “23/16°”, “[…])” for “50-70%)”, “3” for “12”, “stared.” for “stated.”

[3] = converted application rate 0.125 kg/ha
[4] = converted application rate 0.250 kg/ha

SMILES: CC1CSC(c2cc(N3C(=O)C4=C(CCCC4)C3=O)ccc2Cl)S1 (centres unmarked) [Compound 2.5]
% defoliation ([1]; 0.062 kg/ha): 50% | % defoliation ([1]; 0.125 kg/ha): 70% | % defoliation ([1]; 0.250 kg/ha): 97% | % defoliation [2, 3]: 97% | % defoliation [2, 4]: 100%

SMILES: O=C1C2=C(CCCC2)C(=O)N1c1cc(OCC2CCCOC2)c(Cl)cc1F (centres unmarked) [Compound 4.1]
% defoliation ([1]; 0.062 kg/ha): 83%

SMILES: CC1CCCO1 (centres unmarked)
% defoliation [2, 3]: 48% | % defoliation [2, 4]: 53%

SMILES: COC(=O)C(Br)=Cc1cc(N2C(=O)C3=C(CCCC3)C2=O)ccc1Cl [Compound 1.1]
% defoliation ([1]; 0.062 kg/ha): 26% | % defoliation ([1]; 0.125 kg/ha): 61% | % defoliation ([1]; 0.250 kg/ha): 80% | % defoliation [2, 3]: 100% | % defoliation [2, 4]: 98%

melting point: 87 to 103 °C
SMILES: Cc1ncccc1C(=O)N(C)C

SMILES: CCOC(=O)C(Cl)=Cc1cc(N2C(=O)C3=C(CCCC3)C2=O)ccc1Cl [Compound 1.17, N-[3-(1′-ethoxycarbonyl-1′-chloroethenyl)-4-chlorophenyl]-3,4,5,6-tetrahydrophthalimide]
% defoliation ([1]; 0.062 kg/ha): 55% | % defoliation ([1]; 0.125 kg/ha): 84% | % defoliation ([1]; 0.250 kg/ha): 89% | % defoliation [2, 3]: 95% | % defoliation [2, 4]: 100%

SMILES: O=C(Nc1ccccc1)Nc1cnns1 [Comparative agent I, N-phenyl-N′-(1,2,3-thiadiazol-5-yl)-urea, reference compound]
% defoliation ([1]; 0.062 kg/ha): 13% | % defoliation ([1]; 0.125 kg/ha): 31% | % defoliation ([1]; 0.250 kg/ha): 67%

SMILES: c1cc[n+]2c(c1)-c1cccc[n+]1CC2 [Comparative agent II, 6,7-dihydropyridol(1,2-α:2′,1′-c)pyridilium as the dibromide monohydrate salt, reference compound]
% defoliation ([1]; 0.250 kg/ha): 11% | % defoliation ([1]; 0.500 kg/ha): 27%

SMILES: COC(=O)C(C)=Cc1cc(N2C(=O)C3=C(CCCC3)C2=O)ccc1Cl [Compound 1.26]
% defoliation ([1]; 0.062 kg/ha): 67% | % defoliation ([1]; 0.125 kg/ha): 79% | % defoliation ([1]; 0.250 kg/ha): 89%

SMILES: COC(=O)C(C)ON=C(C#N)c1cc(N2C(=O)C3=C(CCCC3)C2=O)ccc1Cl (centres unmarked) [Compound 7.27]
% defoliation [2, 3]: 100% | % defoliation [2, 4]: 95%
